The text below walks through data of ChEMBL document CHEMBL1155868, “N-Benzyl-N-(pyrrolidin-3-yl)carboxamides as a new class of selective dual serotonin/noradrenaline reuptake inhibitors” (Bioorg Med Chem Lett, 2008).

The target of series [1] is Sodium-dependent noradrenaline transporter (Homo sapiens, UniProt P23975).
Description: Inhibition of [3H]NA reuptake in human noradrenaline transporter expressed in HEK293 cells by scintillation counting
The target of series [2] is Sodium-dependent serotonin transporter (Homo sapiens, UniProt P31645). Nature of the series: Inhibition of [3H]5HT reuptake at human serotonin transporter expressed in HEK293 cells by scintillation counting. Format: cell-based.
Sodium-dependent serotonin transporter, sequence (P31645 whole entry): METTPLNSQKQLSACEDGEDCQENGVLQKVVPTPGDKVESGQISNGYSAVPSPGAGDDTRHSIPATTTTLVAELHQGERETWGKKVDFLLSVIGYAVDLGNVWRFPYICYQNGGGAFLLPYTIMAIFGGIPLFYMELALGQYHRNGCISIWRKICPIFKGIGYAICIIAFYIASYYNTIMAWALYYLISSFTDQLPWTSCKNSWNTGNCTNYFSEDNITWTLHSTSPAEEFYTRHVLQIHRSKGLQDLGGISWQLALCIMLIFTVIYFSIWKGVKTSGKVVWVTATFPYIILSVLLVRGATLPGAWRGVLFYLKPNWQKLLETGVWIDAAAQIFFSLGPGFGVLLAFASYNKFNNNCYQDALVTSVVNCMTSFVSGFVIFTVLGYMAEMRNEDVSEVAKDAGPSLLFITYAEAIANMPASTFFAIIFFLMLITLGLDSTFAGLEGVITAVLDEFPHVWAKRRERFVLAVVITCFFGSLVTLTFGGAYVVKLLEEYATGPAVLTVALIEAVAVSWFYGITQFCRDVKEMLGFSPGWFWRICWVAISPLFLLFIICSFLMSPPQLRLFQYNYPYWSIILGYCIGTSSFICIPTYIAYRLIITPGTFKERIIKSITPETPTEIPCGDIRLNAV
Series [3] has as its target Sodium-dependent dopamine transporter (Homo sapiens, UniProt Q01959). The series is described as follows: Inhibition of [3H]DA reuptake at human dopamine transporter expressed in HEK293 cells by scintillation counting. The series is classed as cell-based.
A short description of series [4]: in vitro. The note with it: human, hepatocytes.
Description: Intrinsic clearance in human hepatocytes assessed per million cells
The target of series [5] is Voltage-gated inwardly rectifying potassium channel KCNH2 (Homo sapiens, UniProt Q12809). The series is described as follows: Inhibition of human ERG potassium channel.
Voltage-gated inwardly rectifying potassium channel KCNH2, sequence (Q12809 whole entry): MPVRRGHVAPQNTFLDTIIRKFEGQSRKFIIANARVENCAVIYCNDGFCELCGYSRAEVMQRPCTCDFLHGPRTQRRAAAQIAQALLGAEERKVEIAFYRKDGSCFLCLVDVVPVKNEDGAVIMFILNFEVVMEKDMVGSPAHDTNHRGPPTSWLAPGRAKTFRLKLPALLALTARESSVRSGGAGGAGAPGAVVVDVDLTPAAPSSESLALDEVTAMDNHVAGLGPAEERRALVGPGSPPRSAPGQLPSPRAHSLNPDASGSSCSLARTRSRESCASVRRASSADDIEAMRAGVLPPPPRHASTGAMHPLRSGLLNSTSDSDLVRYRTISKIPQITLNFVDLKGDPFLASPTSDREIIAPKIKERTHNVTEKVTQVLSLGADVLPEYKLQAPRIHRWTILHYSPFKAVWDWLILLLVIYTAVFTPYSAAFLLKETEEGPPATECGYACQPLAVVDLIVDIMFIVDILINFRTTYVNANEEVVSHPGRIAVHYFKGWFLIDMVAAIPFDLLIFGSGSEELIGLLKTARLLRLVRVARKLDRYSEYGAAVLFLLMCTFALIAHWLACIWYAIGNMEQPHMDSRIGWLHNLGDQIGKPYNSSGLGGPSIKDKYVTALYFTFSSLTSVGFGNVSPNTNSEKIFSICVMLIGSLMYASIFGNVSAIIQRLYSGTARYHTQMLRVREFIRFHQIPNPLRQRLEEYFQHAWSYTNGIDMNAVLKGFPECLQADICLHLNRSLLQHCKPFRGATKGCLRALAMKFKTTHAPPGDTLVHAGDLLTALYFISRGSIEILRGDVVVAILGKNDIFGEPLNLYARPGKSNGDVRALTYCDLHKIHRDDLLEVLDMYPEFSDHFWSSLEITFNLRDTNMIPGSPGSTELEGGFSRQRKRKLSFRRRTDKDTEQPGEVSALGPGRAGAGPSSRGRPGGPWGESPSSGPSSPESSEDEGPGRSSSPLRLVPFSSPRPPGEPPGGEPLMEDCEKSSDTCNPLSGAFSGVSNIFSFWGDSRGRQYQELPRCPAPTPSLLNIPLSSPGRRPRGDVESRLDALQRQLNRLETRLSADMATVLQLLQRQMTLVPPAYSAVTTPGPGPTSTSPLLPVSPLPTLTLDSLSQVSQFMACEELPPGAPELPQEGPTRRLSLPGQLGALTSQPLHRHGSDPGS
The target of series [6] is Cytochrome P450 2D6 (Homo sapiens, UniProt P10635). Nature of the series: Inhibition of CYP2D6. Format: ADME.
Cytochrome P450 2D6, sequence (P10635 whole entry): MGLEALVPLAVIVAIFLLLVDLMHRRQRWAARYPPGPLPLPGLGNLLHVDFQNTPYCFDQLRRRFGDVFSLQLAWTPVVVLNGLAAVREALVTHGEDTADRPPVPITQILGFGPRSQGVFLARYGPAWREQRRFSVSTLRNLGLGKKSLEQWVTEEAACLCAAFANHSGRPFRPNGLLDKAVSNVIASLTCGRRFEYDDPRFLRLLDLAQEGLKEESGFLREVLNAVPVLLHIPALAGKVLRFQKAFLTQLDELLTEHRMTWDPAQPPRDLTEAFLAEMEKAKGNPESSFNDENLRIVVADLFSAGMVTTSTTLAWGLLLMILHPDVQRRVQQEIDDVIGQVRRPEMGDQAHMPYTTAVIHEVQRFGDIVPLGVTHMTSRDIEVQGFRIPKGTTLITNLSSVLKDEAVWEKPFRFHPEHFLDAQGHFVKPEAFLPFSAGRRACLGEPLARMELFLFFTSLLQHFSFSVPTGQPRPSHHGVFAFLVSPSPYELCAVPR
Series [7] is described as follows: Distribution coefficient, log D at pH 7.4. Format: physicochemical. Conditions: octanol/water; call rule not given here.
Series [8] can be described thus: Metabolic stability assessed as half life in human liver microsomes. Format: ADME, Microsome. On the technique in general: Liver microsomes are vesicles of endoplasmic reticulum, rich in cytochrome P450 enzymes.
Series [9] concerns the target Cytochrome P450 2C9 (Homo sapiens, UniProt P11712). Nature of the series: Inhibition of CYP2C9. The series is classed as ADME.
A short description of series [10]: Half life in dog at 0.013 mg/kg, po. Format: ADME, organism-based, Canis lupus familiaris. The arrangement: dose 0.013 mg/kg, route oral. The note with it: in vivo.
A short description of series [11]: Half life in dog at 0.01 mg/kg, iv. The series is classed as ADME, organism-based, Canis lupus familiaris. Details: dose 0.01 mg/kg, route intravenous. The note with it: in vivo.
The target in series [12] is Cytochrome P450 3A4 (Homo sapiens, UniProt P08684). The series is described as follows: Inhibition of CYP3A4. Format: ADME.
Cytochrome P450 3A4, sequence (P08684 whole entry): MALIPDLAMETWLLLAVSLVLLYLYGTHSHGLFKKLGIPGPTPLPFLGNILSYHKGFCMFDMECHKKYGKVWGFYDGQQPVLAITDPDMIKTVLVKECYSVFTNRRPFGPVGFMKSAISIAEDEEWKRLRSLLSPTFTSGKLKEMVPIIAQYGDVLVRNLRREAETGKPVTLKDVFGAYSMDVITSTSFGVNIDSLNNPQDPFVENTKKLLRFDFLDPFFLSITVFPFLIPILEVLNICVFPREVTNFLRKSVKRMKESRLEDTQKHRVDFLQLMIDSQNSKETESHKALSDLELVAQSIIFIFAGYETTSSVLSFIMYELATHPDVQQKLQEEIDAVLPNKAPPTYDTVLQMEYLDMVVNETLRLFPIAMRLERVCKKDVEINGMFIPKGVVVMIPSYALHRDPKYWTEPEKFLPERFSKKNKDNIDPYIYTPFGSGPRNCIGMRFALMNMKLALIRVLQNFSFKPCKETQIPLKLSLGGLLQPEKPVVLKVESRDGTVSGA
Series [13] has as its target T1, Cytochrome P450 1A2 (Homo sapiens, UniProt P05177).
T1 sequence (P05177 whole entry): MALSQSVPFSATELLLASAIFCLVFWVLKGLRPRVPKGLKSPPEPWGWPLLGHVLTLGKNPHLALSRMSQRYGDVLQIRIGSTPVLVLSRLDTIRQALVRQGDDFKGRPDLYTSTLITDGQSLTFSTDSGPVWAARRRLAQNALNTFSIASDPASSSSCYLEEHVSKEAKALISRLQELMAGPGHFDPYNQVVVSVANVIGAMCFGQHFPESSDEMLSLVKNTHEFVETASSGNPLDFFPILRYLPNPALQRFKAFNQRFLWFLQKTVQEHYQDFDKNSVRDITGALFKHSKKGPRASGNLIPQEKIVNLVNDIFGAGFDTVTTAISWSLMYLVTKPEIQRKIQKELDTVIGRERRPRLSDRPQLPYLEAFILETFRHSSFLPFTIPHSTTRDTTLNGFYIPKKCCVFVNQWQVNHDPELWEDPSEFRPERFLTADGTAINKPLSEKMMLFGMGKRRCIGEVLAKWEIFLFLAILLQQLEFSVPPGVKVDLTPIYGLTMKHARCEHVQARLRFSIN
The series is described as follows: Inhibition of CYP1A2. Format: ADME.

Series [14] in a line: Bioavailability in dog at 0.013 mg/kg, po. The series is classed as ADME, organism-based, Canis lupus familiaris. The note with it: in vivo.
Series [15] concerns the target Cytochrome P450 2C19 (Homo sapiens, UniProt P33261). Nature of the series: Inhibition of CYP2C19. Format: ADME.
Series [16] in a line: Clearance in dog at 0.01 mg/kg, iv. The series is classed as ADME, organism-based, Canis lupus familiaris. Details: dose 0.01 mg/kg, route intravenous. Conditions: in vivo.
A short description of series [17]: Metabolic stability assessed as half life in dog liver microsomes. Format: ADME, Canis lupus familiaris, Microsome.
Series [18] can be described thus: Volume of distribution in dog at 0.01 mg/kg, iv. Format: ADME, organism-based, Canis lupus familiaris. The note with it: in vivo. The arrangement: dose 0.01 mg/kg, route intravenous.
Series [19] is described as follows: Dissociation constant, pKa of the compound. The series is classed as physicochemical.

Sodium-dependent noradrenaline transporter, sequence (P23975 whole entry): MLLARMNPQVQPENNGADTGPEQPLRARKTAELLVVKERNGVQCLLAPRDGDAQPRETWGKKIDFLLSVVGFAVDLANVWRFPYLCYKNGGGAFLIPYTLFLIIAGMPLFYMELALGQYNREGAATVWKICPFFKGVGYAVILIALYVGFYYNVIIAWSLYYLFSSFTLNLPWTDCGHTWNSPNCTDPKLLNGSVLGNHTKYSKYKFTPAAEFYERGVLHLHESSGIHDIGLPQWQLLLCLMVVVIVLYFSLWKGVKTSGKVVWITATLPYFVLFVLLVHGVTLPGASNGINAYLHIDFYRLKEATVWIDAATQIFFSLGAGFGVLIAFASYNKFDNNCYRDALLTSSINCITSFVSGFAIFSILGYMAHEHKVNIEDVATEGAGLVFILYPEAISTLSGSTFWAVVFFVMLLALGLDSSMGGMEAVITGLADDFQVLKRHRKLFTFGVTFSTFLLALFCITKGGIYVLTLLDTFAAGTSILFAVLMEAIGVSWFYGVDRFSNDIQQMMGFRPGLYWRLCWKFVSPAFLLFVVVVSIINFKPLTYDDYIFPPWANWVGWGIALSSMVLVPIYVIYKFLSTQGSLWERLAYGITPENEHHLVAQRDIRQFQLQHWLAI
Sodium-dependent dopamine transporter, sequence (Q01959 whole entry): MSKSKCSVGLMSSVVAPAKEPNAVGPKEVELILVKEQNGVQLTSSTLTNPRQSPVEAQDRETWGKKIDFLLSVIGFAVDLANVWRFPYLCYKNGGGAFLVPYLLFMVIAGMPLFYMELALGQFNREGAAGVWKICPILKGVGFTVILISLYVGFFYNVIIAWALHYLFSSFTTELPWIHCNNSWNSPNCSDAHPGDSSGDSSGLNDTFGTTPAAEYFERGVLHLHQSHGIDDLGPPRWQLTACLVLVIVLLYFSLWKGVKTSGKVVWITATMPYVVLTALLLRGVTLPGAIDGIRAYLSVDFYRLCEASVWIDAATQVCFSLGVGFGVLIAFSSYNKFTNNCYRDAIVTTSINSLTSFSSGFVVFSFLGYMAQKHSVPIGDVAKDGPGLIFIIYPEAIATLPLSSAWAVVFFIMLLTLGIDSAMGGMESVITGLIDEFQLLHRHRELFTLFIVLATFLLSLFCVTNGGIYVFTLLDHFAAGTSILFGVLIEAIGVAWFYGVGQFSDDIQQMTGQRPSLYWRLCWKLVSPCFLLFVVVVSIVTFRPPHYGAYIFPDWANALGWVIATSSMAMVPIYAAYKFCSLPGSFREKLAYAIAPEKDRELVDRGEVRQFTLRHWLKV
Cytochrome P450 2C19, sequence (P33261 whole entry): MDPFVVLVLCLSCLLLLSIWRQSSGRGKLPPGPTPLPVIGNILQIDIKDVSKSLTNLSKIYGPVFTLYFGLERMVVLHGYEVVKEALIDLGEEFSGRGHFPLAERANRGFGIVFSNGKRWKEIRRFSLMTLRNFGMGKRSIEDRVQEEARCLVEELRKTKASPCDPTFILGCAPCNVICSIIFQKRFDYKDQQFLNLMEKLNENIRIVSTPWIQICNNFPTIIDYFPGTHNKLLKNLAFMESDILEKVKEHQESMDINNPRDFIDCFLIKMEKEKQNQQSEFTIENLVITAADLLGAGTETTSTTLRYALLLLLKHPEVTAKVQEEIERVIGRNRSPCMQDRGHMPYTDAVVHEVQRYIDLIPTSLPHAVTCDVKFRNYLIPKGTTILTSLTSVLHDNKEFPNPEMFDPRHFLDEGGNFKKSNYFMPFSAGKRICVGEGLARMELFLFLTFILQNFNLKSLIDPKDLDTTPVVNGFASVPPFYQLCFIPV
Cytochrome P450 2C9, sequence (P11712 whole entry): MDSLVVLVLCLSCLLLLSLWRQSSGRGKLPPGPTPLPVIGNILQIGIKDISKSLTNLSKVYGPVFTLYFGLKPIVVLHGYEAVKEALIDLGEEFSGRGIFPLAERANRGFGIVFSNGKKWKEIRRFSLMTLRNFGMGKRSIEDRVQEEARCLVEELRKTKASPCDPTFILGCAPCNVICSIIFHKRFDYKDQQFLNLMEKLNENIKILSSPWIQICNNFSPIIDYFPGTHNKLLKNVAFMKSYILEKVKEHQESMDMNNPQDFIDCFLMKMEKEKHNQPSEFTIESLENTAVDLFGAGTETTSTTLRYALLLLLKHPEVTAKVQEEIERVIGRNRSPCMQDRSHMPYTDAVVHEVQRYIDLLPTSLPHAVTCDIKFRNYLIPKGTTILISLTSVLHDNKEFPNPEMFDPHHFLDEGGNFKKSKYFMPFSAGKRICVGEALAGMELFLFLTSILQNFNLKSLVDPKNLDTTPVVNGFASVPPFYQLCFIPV

The term IC50 denotes the concentration that inhibits the measured activity by half. Low values mean inhibition by little substance, high ones a need for much substance. For `CCC(=O)N(Cc1ccc(Cl)cc1Cl)[C@H]1CCNC1`, the IC50 in [1] was 0.06 µM; in [2], 0.025 µM.

Consider `CC(C)C(=O)N(Cc1cc(Cl)cc(Cl)c1Cl)[C@H]1CCNC1`, for which the IC50 in series [3] is 21.6 µM; in [1] it was 0.029 µM; in [2] it was 0.044 µM.

In the case of `CC(C)C(=O)N(Cc1ccccc1-c1ccccc1)[C@H]1CCNC1`, the IC50 was 0.014 µM in series [1] and over 0.4 µM in [2].

On to `CC(C)CC(=O)N(Cc1ccc(Cl)cc1Cl)[C@H]1CCNC1`, for which the half-inhibitory concentration (IC50) in [1] is 0.031 µM; in series [2], 0.093 µM.

In the case of `CC(C)(C)CC(=O)N(Cc1ccc(Cl)cc1Cl)[C@H]1CCNC1`, the figures for the IC50 in series [3], in [1] and in series [2] were 10.2 µM, 0.039 µM and 0.027 µM, respectively.

For `CCCC(=O)N(Cc1ccc(Cl)cc1Cl)[C@H]1CCNC1`, the IC50 stood at 0.031 µM in [1] and 0.072 µM in series [2].

For the molecule `O=C(c1ccccc1)N(Cc1ccc(Cl)cc1Cl)[C@H]1CCNC1`, the half-maximal inhibitory concentration (IC50) came out at 0.094 µM in series [1] and 0.195 µM in [2].

As for `O=C(C1CCC1)N(Cc1ccc(Cl)cc1Cl)[C@H]1CCNC1`, the 50% inhibitory concentration (IC50) in series [1] was found to be 0.064 µM; in series [2], 0.041 µM.

For `CC(C)C(=O)N(Cc1ccc(F)cc1Cl)[C@H]1CCNC1`, the IC50 in series [1] was found to be 0.098 µM; in [2] it was 0.161 µM.

For the molecule `CC(C)CC(=O)N(Cc1cccc(Cl)c1Cl)[C@H]1CCNC1`, the figures for the IC50 in [1] and in series [2] were 0.062 µM and 0.017 µM, respectively.

For the molecule `CCCCC(=O)N(Cc1ccc(Cl)cc1Cl)[C@H]1CCNC1`, the figures for the IC50 in series [1] and in series [2] were 0.07 µM and 0.033 µM, respectively.

Regarding `CC(C)C(=O)N(Cc1ccccc1Cl)[C@H]1CCNC1`, the IC50 came to 0.114 µM in series [1] and 0.091 µM in [2].

`CC(C)C(=O)N(Cc1ccc(F)cc1F)[C@H]1CCNC1`: the IC50 in [1] and in [2] was over 0.4 µM throughout.

One may read the hepatocyte CLint as the capacity of the preparation to metabolise the compound, expressed as a volume cleared per time. For orientation: logD means the decadic logarithm of the distribution of all forms, ionised or not, between an organic phase and buffer at a given pH. The low end stands for a more hydrophilic compound, the high end for a more lipophilic compound. Usually half-life stands for how long it takes for the measured level to halve. The molecule `CC(C)C(=O)N(Cc1ccc(Cl)cc1Cl)[C@H]1CCNC1` had a hepatocyte CLint in series [4] of 4.8 µL/min/1e6 cells. Further, the IC50 in series [3] was over 40 µM; in [5], 40.2 µM; in series [1], 0.028 µM; in [6], 21.8 µM; in series [2], 0.013 µM. The molecule further returned a pH-dependent lipophilicity (logD) in series [7] of 0.8. The half-life in series [8] was over 2 h.

Consider `CC(C)(C)C(=O)N(Cc1cccc(Cl)c1Cl)[C@H]1CCNC1`, for which the figures for the concentration for half-maximal inhibition (IC50) in series [1] and in series [2] were over 0.322 µM and 0.026 µM, respectively.

On to `CC(C)C(=O)N(Cc1ccc(C(F)(F)F)cc1F)[C@H]1CCNC1`, for which the values for the IC50 in [1] and in [2] were over 0.4 µM and 0.024 µM, respectively.

In the case of `CC(C)C(=O)N(Cc1ccc(Cl)c(Cl)c1Cl)[C@H]1CCNC1`, the intrinsic clearance (hepatocyte CLint) in series [4] worked out at 8.8 µL/min/1e6 cells. The half-inhibitory concentration (IC50) in series [3] was 5.87 µM; in series [5], over 6.87 µM; in series [1], 0.016 µM; in [6], 17.6 µM; in [2] it was 0.005 µM. The molecule also came in with a logD in series [7] of 1.3. The half-life in series [8] was over 2 h.

Consider `O=C(C1CC1)N(Cc1ccc(Cl)cc1Cl)[C@H]1CCNC1`, for which the half-maximal inhibitory concentration (IC50) in series [1] amounted to 0.025 µM; in series [2] it was 0.038 µM.

Turning to `CC(C)C(=O)N(Cc1cccc(Cl)c1Cl)[C@@H]1CCNC1`, the half-inhibitory concentration (IC50) in series [3] came out at 1.12 µM; in series [2], 0.005 µM.

In the case of `CC(C)(C)C(=O)N(Cc1ccc(Cl)cc1Cl)[C@H]1CCNC1`, the values for the IC50 in [1] and in series [2] were 0.092 µM and 0.041 µM, respectively.

For orientation: bioavailability means dose-corrected exposure relative to a reference, in per cent. The low end stands for poor availability, the high end for good availability. By clearance is commonly meant a measure of how efficiently the substance is removed, as volume per time. By Vd is commonly meant a proportionality between amount in the body and measured concentration, not a real space. A low value points to little distribution into tissue. Broadly, the pKa is the negative logarithm of the acid dissociation constant. The low end stands for a stronger acid or weaker base, the high end for a weaker acid or stronger base. For the molecule `CC(C)C(=O)N(Cc1cccc(Cl)c1Cl)[C@H]1CCNC1`, the hepatocyte CLint in [4] stood at 2.7 µL/min/1e6 cells. In addition, the IC50 was 1.27 µM in series [3], 24.7 µM in series [5], 27.1 µM in [6] and 17.9 µM in series [12]. Moreover, the logD in series [7] was found to be 0.8. The Activity entry in series [9], in [13] and in series [15] was “Not Active” each time. Besides, the half-life was 5.7 h in series [10], 5.7 h in [11], 0.583 h in series [17] and over 2 h in series [8]. The bioavailability in series [14] turned out to be 91%. This molecule registered a clearance in [16] of 0.066 L/h/kg. For the same molecule, the Vd in [18] came out at 0.5 L/kg. The molecule further displayed a pKa in [19] of 9.4.

For `O=C(C1CCOCC1)N(Cc1cccc(Cl)c1Cl)[C@H]1CCNC1`, the half-maximal inhibitory concentration (IC50) in series [1] came out at 0.3 µM; in series [2], 0.123 µM.
